# Like-named read-outs stand apart in the source and are kept apart here.
# Legend:
# Candida albicans = experiment: checkerboard drug interaction (FICI, MICc);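 as to all read-outs here: antifungal plus FPPS inhibitor combinations on Candida albicans tested by a simplified diagonal checkerboard screen, with FICI calculated under the Loewe additivity model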; assay type: cell-based; details: C. albicans; for INH FD (MIC-MICc fold decrease): fold decrease of inhibitor MIC
# Description: (§1) Drug interactions between antifungals and FPPS inhibitors were investigated using a simplified checkerboard diagonal screening method ([45]). […] FICIs were determined according to the Loewe additivity model ([17]).
# Aspergillus flavus [1] = experiment: checkerboard drug interaction (FICI, MICc);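 also: simplified diagonal checkerboard screen pairing azole antifungals with FPPS inhibitors, FICI calculated under the Loewe additivity model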; assay type: cell-based; set-up: INH MICc (KET:INH) / INH MICc (FLC:INH): unit not given beside the values; details: A. flavus
# Aspergillus fumigatus [2] = experiment: checkerboard drug interaction (FICI, MICc);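 as to all read-outs here: simplified diagonal checkerboard screen pairing antifungals with FPPS inhibitors against Aspergillus fumigatus, with FICI calculated under the Loewe additivity model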; assay type: cell-based; details: A. fumigatus; for INH FD (MIC-MICc fold decrease): fold decrease of inhibitor MIC
# Description: as §1
# Trichophyton rubrum [3] = experiment: checkerboard drug interaction (FICI, MICc);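 also: simplified diagonal checkerboard screen pairing azole antifungals with FPPS inhibitors, FICI calculated under the Loewe additivity model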; assay type: cell-based; details: T. rubrum
# Description: as §1
# HEK-293T cells = experiment: MTT reduction cytotoxicity assay; assay type: cell-based; details: Homo sapiens, HEK-293T, 72 h, MTT, 72 h
# eight fungal species [4] = experiment: MIC/MFC summary across the eight fungal species of Table 1; assay type: cell-based
# Description: The antifungal activity of these compounds was evaluated according to CLSI guidelines ([16]).
# eight fungal species [5] = experiment: checkerboard interaction with azoles, summary across the eight species; assay type: cell-based; details: geometric mean MIC in combination with azoles
# Source text: Synergy between lipophilic FPPS inhibitors and azole antifungals was investigated by determining the fractional inhibitory concentration index (FICI) (Fig. 2; Table S1 Fig. S1) ([17]). […]. Derivatives PLA9 and 11, and PDA9, 11, and 12 antagonized azoles in C. albicans, C. neoformans, and C. deuterogattii, yet were largely synergistic in C. glabrata and S. cerevisiae. […].
# [6] = test system: Cryptococcus deuterogattii; experiment: MIC/MFC broth microdilution (CLSI); details: Cryptococcus deuterogattii;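 also: broth microdilution per CLSI M27-Ed4. MFC is the lowest concentration yielding no colonies when MIC broths are subcultured onto SDA plates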
# Description: (§2) Antifungal susceptibility was determined by broth microdilution according to the CLSI guidelines described in M27-Ed4 ([16]). […] MFC was determined by back-plating drug-treated cultures from MIC broths onto SDA plates. The MFC was defined as the lowest concentration from which no colonies could be cultured.
# Cryptococcus neoformans = experiment: MIC/MFC broth microdilution (CLSI); details: Cryptococcus neoformans;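 also: susceptibility testing followed the CLSI M27-Ed4 broth microdilution document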
# Description: as §2
# Candida glabrata = experiment: MIC/MFC broth microdilution (CLSI); details: Nakaseomyces glabratus, CBS138;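 also: broth microdilution following CLSI M27-Ed4, MFC taken as the lowest drug level yielding no growth once MIC wells were subcultured on SDA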
# Description: as §2
# Aspergillus flavus [7] = experiment: MIC/MFC broth microdilution (CLSI); details: ATCC204304
# Description: as §2
# Aspergillus fumigatus [8] = experiment: MIC/MFC broth microdilution (CLSI); details: ATCC204305
# Description: as §2
# Trichophyton rubrum [9] = experiment: MIC/MFC broth microdilution (CLSI); details: Trichophyton rubrum
# Description: as §2
# [10] = KET:INH combination, MIC of the inhibitor in combination with KET
# [11] = KET:INH combination, fold decrease of KET MIC
# [12] = Fractional Inhibitory Concentration Index, fluconazole + inhibitor
# [13] = Fractional Inhibitory Concentration Index, itraconazole + inhibitor
# [14] = Fractional Inhibitory Concentration Index, ketoconazole + inhibitor
# [15] = MIC of the inhibitor in combination with fluconazole
# [16] = MIC of the inhibitor in combination with itraconazole
# [17] = MIC of the inhibitor in combination with ketoconazole
# [18] = MIC-MICc fold decrease of fluconazole, negative = increase
# [19] = MIC-MICc fold decrease of itraconazole, negative = increase
# [20] = MIC-MICc fold decrease of ketoconazole, negative = increase
# [21] = MIC-MICc fold decrease of the inhibitor, with fluconazole
# [22] = MIC-MICc fold decrease of the inhibitor, with itraconazole
# [23] = MIC-MICc fold decrease of the inhibitor, with ketoconazole
compound,measurement,setting,value
CCCCCCCCCN1CCC[C@H]1C(=O)N[C@@H](CC(=O)OC)C(=O)OC [dmPLA9],INH FD (MIC-MICc fold decrease),Candida albicans; ITR:INH combination,8
same,FICI,Candida albicans; KET:INH combination,2.13
same,INH MICc,Candida albicans; [10],16
same,KET FD (MIC-MICc fold decrease),Candida albicans; [11],-2
same,INH FD (MIC-MICc fold decrease),Candida albicans; KET:INH combination,8
same,FICI (FLC:INH),Aspergillus flavus [1]; [12],1.5
same,FICI (ITR:INH),Aspergillus flavus [1]; [13],2
same,FICI (KET:INH),Aspergillus flavus [1]; [14],1
same,INH MICc (FLC:INH),Aspergillus flavus [1]; [15],128
same,INH MICc (ITR:INH),Aspergillus flavus [1]; [16],256
same,INH MICc (KET:INH),Aspergillus flavus [1]; [17],128
same,FLC FD (FLC:INH),Aspergillus flavus [1]; [18],1
same,ITR FD (ITR:INH),Aspergillus flavus [1]; [19],1
same,KET FD (KET:INH),Aspergillus flavus [1]; [20],2
same,INH FD (FLC:INH),Aspergillus flavus [1]; [21],2
same,INH FD (ITR:INH),Aspergillus flavus [1]; [22],1
same,INH FD (KET:INH),Aspergillus flavus [1]; [23],2
same,FICI,Aspergillus fumigatus [2]; FLC:INH combination,3
same,FLC MICc,"Aspergillus fumigatus [2]; FLC:INH combination, MIC of FLC in combination with the inhibitor",128
same,INH MICc,"Aspergillus fumigatus [2]; FLC:INH combination, MIC of the inhibitor in combination with FLC",256
same,FLC FD (MIC-MICc fold decrease),"Aspergillus fumigatus [2]; FLC:INH combination, fold decrease of FLC MIC",1
same,INH FD (MIC-MICc fold decrease),Aspergillus fumigatus [2]; FLC:INH combination,-2
same,FICI,Aspergillus fumigatus [2]; ITR:INH combination,1.03
same,ITR MICc,"Aspergillus fumigatus [2]; ITR:INH combination, MIC of ITR in combination with the inhibitor",0.125
same,INH MICc,"Aspergillus fumigatus [2]; ITR:INH combination, MIC of the inhibitor in combination with ITR",4
same,ITR FD (MIC-MICc fold decrease),"Aspergillus fumigatus [2]; ITR:INH combination, fold decrease of ITR MIC",1
same,INH FD (MIC-MICc fold decrease),Aspergillus fumigatus [2]; ITR:INH combination,32
same,FICI,Aspergillus fumigatus [2]; KET:INH combination,2
same,KET MICc,"Aspergillus fumigatus [2]; KET:INH combination, MIC of KET in combination with the inhibitor",4
same,INH MICc,Aspergillus fumigatus [2]; [10],128
same,KET FD (MIC-MICc fold decrease),Aspergillus fumigatus [2]; [11],1
same,INH FD (MIC-MICc fold decrease),Aspergillus fumigatus [2]; KET:INH combination,1
same,FICI (FLC:INH),Trichophyton rubrum [3]; [12],≥4
same,FICI (ITR:INH),Trichophyton rubrum [3]; [13],1.5
same,FICI (KET:INH),Trichophyton rubrum [3]; [14],2
same,INH MICc (FLC:INH),Trichophyton rubrum [3]; [15],256
same,INH MICc (ITR:INH),Trichophyton rubrum [3]; [16],128
same,INH MICc (KET:INH),Trichophyton rubrum [3]; [17],128
same,FLC FD (FLC:INH),Trichophyton rubrum [3]; [18],-2
same,ITR FD (ITR:INH),Trichophyton rubrum [3]; [19],2
same,KET FD (KET:INH),Trichophyton rubrum [3]; [20],1
same,INH FD (FLC:INH),Trichophyton rubrum [3]; [21],-2
same,INH FD (ITR:INH),Trichophyton rubrum [3]; [22],1
same,INH FD (KET:INH),Trichophyton rubrum [3]; [23],1
same,IC50,"HEK-293T cells; HEK-293T cells, read-out: IC50",41.4 µg/mL
same,IC50,HEK-293T cells; read-out: HEK IC50,41.4 µg/mL
same,MFC,"eight fungal species [4]; across eight species, read-out: Geometric mean MFC",197 µg/mL
same,MIC,"eight fungal species [4]; geometric mean across eight species, read-out: GM fungal MIC",128 µg/mL
same,MIC,eight fungal species [4]; read-out: Geometric mean MIC,128 µg/mL
same,GM fungal MICc,eight fungal species [5],52.3
same,MFC,[6],> 128 µg/mL
same,MIC,[6],128 µg/mL
same,MFC,Cryptococcus neoformans,> 128 µg/mL
same,MIC,Cryptococcus neoformans,128 µg/mL
same,MFC,Candida glabrata,> 128 µg/mL
same,MIC,Candida glabrata,128 µg/mL
same,MFC,Aspergillus flavus [7],> 128 µg/mL
same,MIC,Aspergillus flavus [7],> 128 µg/mL
same,MFC,Aspergillus fumigatus [8],> 128 µg/mL
same,MIC,Aspergillus fumigatus [8],128 µg/mL
same,MFC,Trichophyton rubrum [9],> 128 µg/mL
same,MIC,Trichophyton rubrum [9],128 µg/mL

# — PMC12892976, “Alkylation-based optimization of antifungal FPPS inhibitors yields a potent, broad-spectrum lipophilic zoledronate derivative” (mBio, 2025)
